From PubChem BioAssay (NCI) come the findings set out here.

Test systems include A549 NSCLC; HOP-62 NSCLC; HOP-92 NSCLC; IGROV1 ovarian; K-562 leukemia; NCI-H226 lung; NCI-H23 lung; NCI-H522 lung; RPMI-8226 leukemia; SF-295 CNS; TK-10 renal; SK-MEL-2 melanoma.
Holding throughout (assay): NCI-60 cell line screen, 48 h

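Exposure lasted 48 hours, with cells grown in 96-well plates and compounds tested at five concentrations. GI50 marks 50% less growth. Definition used: TGI = concentration required for complete inhibition of growth.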

In the case of `O=S(=O)([O-])[O-].[Fe+2].[OH2+]c1c(Cl)cc(Cl)cc1/C=N/Nc1ccccn1`, the TGI with A549 NSCLC amounted to 4.14 µM; in the experiment with HOP-62 NSCLC it was 3.56 µM; in the experiment on HOP-92 NSCLC it was 0.899 µM; in the experiment with IGROV1 ovarian, 3.13 µM; in the experiment with K-562 leukemia, 3.26 µM; with NCI-H226 lung it was 4.41 µM. The TGI was 2.64 µM in the experiment on NCI-H23 lung; 1.92 µM in the experiment with NCI-H522 lung; 6.12 µM in the experiment with RPMI-8226 leukemia; 3.45 µM with SF-295 CNS; 2.33 µM in the experiment on TK-10 renal. Further, in the experiment with TK-10 renal, the GI50 was 1.01 µM.
As for `CC(=O)[C@]12OC(=O)C3=C1[C@H](CC[C@@H]3C)[C@@H](C)C[C@H]2C=C(C)C`, the TGI with A549 NSCLC turned out to be 16.8 µM; in the experiment on HOP-62 NSCLC it was 16 µM; in the experiment with HOP-92 NSCLC, 7.43 µM; with IGROV1 ovarian it was 14.2 µM; in the experiment on K-562 leukemia, 13.2 µM; with NCI-H226 lung, 16 µM. Also, the TGI in the experiment with NCI-H23 lung turned out to be 17.9 µM; in the experiment with NCI-H522 lung, 11.4 µM; with RPMI-8226 leukemia, 15.5 µM; with SF-295 CNS, 12.8 µM; in the experiment on SK-MEL-2 melanoma it was 14.7 µM.
`O=C1O/C(=C\C=C\CO)C=C1/C=C/CO`: the TGI with A549 NSCLC was above 100 µM; in the experiment on IGROV1 ovarian it was 38.6 µM; with K-562 leukemia it was above 100 µM; with NCI-H226 lung, 95.8 µM; in the experiment with NCI-H23 lung it was 41.9 µM; in the experiment on NCI-H522 lung, 22.5 µM. Besides, the TGI in the experiment on RPMI-8226 leukemia was 47.6 µM; with SF-295 CNS, above 100 µM; in the experiment with SK-MEL-2 melanoma, 43.4 µM; with TK-10 renal, 41 µM.
Take `N=C(N)SCCN1CCCCC1`: the TGI in the experiment with A549 NSCLC is above 100 µM; in the experiment on HOP-62 NSCLC, above 100 µM; in the experiment with HOP-92 NSCLC, above 100 µM; in the experiment on IGROV1 ovarian, above 100 µM; in the experiment on K-562 leukemia, 62.1 µM; with NCI-H226 lung, 47.7 µM. The TGI with NCI-H23 lung is above 100 µM; in the experiment with NCI-H522 lung, 24.3 µM; with RPMI-8226 leukemia, 40.2 µM; in the experiment on SF-295 CNS, above 100 µM; in the experiment on SK-MEL-2 melanoma, 17 µM; in the experiment with TK-10 renal, above 100 µM.
In the case of `NC(=S)N/N=C1\CC(c2ccccc2)Nc2ccccc21` (configuration not stated), the TGI in the experiment on HOP-92 NSCLC is 57.5 µM; with IGROV1 ovarian it was above 100 µM; in the experiment with K-562 leukemia, above 100 µM; with NCI-H226 lung, above 100 µM; with NCI-H23 lung, above 100 µM; in the experiment with NCI-H522 lung, 99.2 µM. For the same compound, the TGI in the experiment with RPMI-8226 leukemia, in the experiment on SF-295 CNS and in the experiment with TK-10 renal was above 100 µM throughout.
As to `Nc1ccc(S(=O)(=O)NCCS(=O)(=O)O)cc1`, the TGI in the experiment with A549 NSCLC, in the experiment on HOP-62 NSCLC, in the experiment on HOP-92 NSCLC, in the experiment with IGROV1 ovarian, in the experiment with K-562 leukemia and in the experiment with NCI-H226 lung was above 100 µM in each case. Also, the TGI in the experiment on NCI-H23 lung, in the experiment with NCI-H522 lung, in the experiment with SF-295 CNS, in the experiment with SK-MEL-2 melanoma and with TK-10 renal was above 100 µM in each case.
As for `Cc1cccc(/C=C2/C(=O)Nc3ccccc32)n1`, the TGI with A549 NSCLC was above 85 µM; in the experiment with HOP-62 NSCLC, 33.3 µM; in the experiment on HOP-92 NSCLC, 31.3 µM; with IGROV1 ovarian, above 100 µM; with K-562 leukemia it was 40.4 µM; with NCI-H226 lung, 35.9 µM. For the same compound, the TGI with NCI-H23 lung is 28.9 µM; in the experiment with NCI-H522 lung, 34.7 µM; with RPMI-8226 leukemia it was 46.5 µM; in the experiment with SF-295 CNS it was 54.4 µM; in the experiment with SK-MEL-2 melanoma, 36.4 µM; in the experiment with TK-10 renal it was 33.7 µM. Further, the GI50 with IGROV1 ovarian is 24.4 µM; in the experiment on NCI-H226 lung, 14.6 µM.
For `CCCCCCCCc1ccc(CCC(N)(CO)CO)cc1`, the GI50 with HOP-62 NSCLC is 1.69 µM; with HOP-92 NSCLC, 1.39 µM; in the experiment on IGROV1 ovarian it was 1.89 µM; with K-562 leukemia it was 1.82 µM; in the experiment with NCI-H226 lung it was 1.77 µM; in the experiment with SF-295 CNS, 1.98 µM. Besides, the results for the GI50 with SK-MEL-2 melanoma and in the experiment on TK-10 renal were 2.06 µM and 1.89 µM, respectively. Besides, the TGI in the experiment with HOP-62 NSCLC was found to be 3.08 µM; with HOP-92 NSCLC, 3.53 µM; in the experiment with IGROV1 ovarian it was 3.9 µM; with K-562 leukemia, 4.33 µM; with NCI-H226 lung, 3.42 µM; in the experiment on SF-295 CNS it was 3.93 µM. The TGI was found to be 3.76 µM with SK-MEL-2 melanoma and 3.58 µM with TK-10 renal.
Regarding `COc1cc(O)c2c(=O)c(OC)c(-c3ccc(OC)c(OC)c3)oc2c1.[Zn+2]`, the TGI was above 100 µM with A549 NSCLC; 11.4 µM in the experiment on HOP-62 NSCLC; above 100 µM with IGROV1 ovarian; above 100 µM in the experiment on K-562 leukemia; above 100 µM in the experiment with NCI-H226 lung; 24.1 µM with NCI-H522 lung. Besides, the TGI in the experiment on RPMI-8226 leukemia is above 100 µM; in the experiment with SF-295 CNS, 35.9 µM; with TK-10 renal, above 100 µM. In addition, the GI50 in the experiment with HOP-62 NSCLC is 2.87 µM; with IGROV1 ovarian, 29.8 µM; in the experiment on K-562 leukemia it was 41.6 µM; in the experiment with SF-295 CNS it was 5.57 µM.
As for `Cc1ncc(COP(=O)(O)O)c(C)c1O`, the TGI with A549 NSCLC, in the experiment on HOP-62 NSCLC, with HOP-92 NSCLC, in the experiment with IGROV1 ovarian, with K-562 leukemia and in the experiment on NCI-H226 lung was above 100 µM in each case. Also, the TGI in the experiment with NCI-H23 lung, in the experiment with NCI-H522 lung, in the experiment with SF-295 CNS, in the experiment on SK-MEL-2 melanoma and with TK-10 renal was above 100 µM each time.
For the compound `CC(=O)C(N=NC1CCC(S(=O)(=O)NB2N=CS2)CC1)C(=O)Nc1ccccc1C` (configuration not stated), the TGI is 28.6 µM in the experiment with A549 NSCLC; 34.7 µM in the experiment with HOP-62 NSCLC; 34.3 µM with HOP-92 NSCLC; 35.2 µM in the experiment with IGROV1 ovarian; above 100 µM in the experiment on K-562 leukemia; 31.4 µM in the experiment with NCI-H226 lung. For the same compound, the TGI in the experiment with NCI-H23 lung is 28.9 µM; in the experiment on NCI-H522 lung it was 29.6 µM; with RPMI-8226 leukemia, above 100 µM; with SF-295 CNS, 35.1 µM; in the experiment on SK-MEL-2 melanoma, 33.3 µM; in the experiment on TK-10 renal it was 58.6 µM.
For `C[N+]1(c2ccccc2)C=C(c2ccccc2)SC1=S` (configuration not stated), the TGI in the experiment with A549 NSCLC, in the experiment on HOP-62 NSCLC, in the experiment with IGROV1 ovarian, with K-562 leukemia, in the experiment with NCI-H226 lung and with NCI-H23 lung was above 100 µM each time. In addition, the TGI in the experiment with NCI-H522 lung, in the experiment on RPMI-8226 leukemia, in the experiment with SF-295 CNS, in the experiment with SK-MEL-2 melanoma and with TK-10 renal was above 100 µM in each case.
For `O=C(/C=C/c1ccc(O)cc1)c1cc(-c2cc(CCC(=O)c3ccc(O)cc3O)ccc2O)c(O)cc1O`, the TGI with A549 NSCLC is above 50 µM; in the experiment with HOP-62 NSCLC it was above 50 µM; in the experiment with HOP-92 NSCLC, above 50 µM; in the experiment on IGROV1 ovarian it was above 50 µM; with K-562 leukemia, 48.4 µM; in the experiment with NCI-H23 lung, above 50 µM. Also, the TGI in the experiment on NCI-H522 lung, in the experiment with RPMI-8226 leukemia, in the experiment with SF-295 CNS, in the experiment with SK-MEL-2 melanoma and in the experiment on TK-10 renal was above 50 µM throughout.
`C[N+]1(C)C/C(=C\c2ccc(O)cc2)C(=O)/C(=C/c2ccc(O)cc2)C1`: the TGI in the experiment on A549 NSCLC, with HOP-62 NSCLC, in the experiment on HOP-92 NSCLC, with IGROV1 ovarian, with NCI-H522 lung and in the experiment on RPMI-8226 leukemia was above 100 µM each time. The TGI with SF-295 CNS and with TK-10 renal was above 100 µM in each case.
Regarding `C=C(C[C@@H](O)[C@H](C)NC(=O)OCc1ccccc1)C(=O)OC(C)(C)C`, the TGI in the experiment on A549 NSCLC, in the experiment with HOP-62 NSCLC, in the experiment on HOP-92 NSCLC, with IGROV1 ovarian, with K-562 leukemia and in the experiment on NCI-H226 lung was above 100 µM in each case. Also, the TGI with NCI-H23 lung, in the experiment on NCI-H522 lung, with RPMI-8226 leukemia, with SF-295 CNS, in the experiment on SK-MEL-2 melanoma and in the experiment on TK-10 renal was above 100 µM in each case.
With `CCOc1ccc(N=Nc2ccc(-c3ccc(N=Nc4c(O)ccc5cc(S(=O)(=O)O)cc(S(=O)(=O)O)c45)cc3)cc2)cc1`, the TGI in the experiment on A549 NSCLC, in the experiment on HOP-62 NSCLC, in the experiment on HOP-92 NSCLC, with IGROV1 ovarian, with K-562 leukemia and with NCI-H226 lung was above 100 µM throughout. Besides, the TGI with NCI-H23 lung, with NCI-H522 lung, with RPMI-8226 leukemia, in the experiment on SF-295 CNS, in the experiment on SK-MEL-2 melanoma and with TK-10 renal was above 100 µM throughout.
Regarding `CC(=O)c1c(C)cc2cccc(OC3OC(CO)C(O)C(O)C3O)c2c1O` (configuration not stated) (tested in a mixture with another compound), the TGI in the experiment with A549 NSCLC, in the experiment with HOP-62 NSCLC, with HOP-92 NSCLC, in the experiment on IGROV1 ovarian, with K-562 leukemia and in the experiment with NCI-H226 lung was above 100 µM throughout. Further, the TGI in the experiment on NCI-H23 lung, with NCI-H522 lung, with RPMI-8226 leukemia, in the experiment with SF-295 CNS, with SK-MEL-2 melanoma and in the experiment on TK-10 renal was above 100 µM throughout.
